Measurements: paper PMC5448077, “Development of an orally available inhibitor of CLK1 for skipping a mutated dystrophin exon in Duchenne muscular dystrophy” (Scientific Reports, 2017)

What was measured:
Assay in all cases: biochemical
[1] = target: T1, AurA (Homo sapiens, UniProt O14965)
T1 construct: gene AURKA
How it was run: (§1)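 Human kinases phosphorylating kinase-specific synthetic peptides, assayed by mobility shift (MSA) or IMAP fluorescence polarization, in 20 mM HEPES pH 7.5, 0.01% Triton X-100, 2 mM DTT with substrate/ATP-metal. Reactions ran 1 or 5 h at room temperature; activity = P/(P + S) from product and substrate peak heights.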

[2] = target: T2, MNK1 (Homo sapiens, UniProt Q9BUB5)
T2 construct: gene MKNK1
How it was run: as §1

[3] = target: AKT1 (Homo sapiens, UniProt P31749)
How it was run: as §1

[4] = target: T3, SRM (Homo sapiens, UniProt Q9H3Y6)
T3 construct: gene SRMS
How it was run: as §1

[5] = target: T4, CDK5/p25 (Homo sapiens, UniProt Q00535)
T4 construct: p25
How it was run: as §1

[6] = target: HIPK4 (Homo sapiens, UniProt Q8NE63)
Sequence of HIPK4 (Q8NE63 whole entry): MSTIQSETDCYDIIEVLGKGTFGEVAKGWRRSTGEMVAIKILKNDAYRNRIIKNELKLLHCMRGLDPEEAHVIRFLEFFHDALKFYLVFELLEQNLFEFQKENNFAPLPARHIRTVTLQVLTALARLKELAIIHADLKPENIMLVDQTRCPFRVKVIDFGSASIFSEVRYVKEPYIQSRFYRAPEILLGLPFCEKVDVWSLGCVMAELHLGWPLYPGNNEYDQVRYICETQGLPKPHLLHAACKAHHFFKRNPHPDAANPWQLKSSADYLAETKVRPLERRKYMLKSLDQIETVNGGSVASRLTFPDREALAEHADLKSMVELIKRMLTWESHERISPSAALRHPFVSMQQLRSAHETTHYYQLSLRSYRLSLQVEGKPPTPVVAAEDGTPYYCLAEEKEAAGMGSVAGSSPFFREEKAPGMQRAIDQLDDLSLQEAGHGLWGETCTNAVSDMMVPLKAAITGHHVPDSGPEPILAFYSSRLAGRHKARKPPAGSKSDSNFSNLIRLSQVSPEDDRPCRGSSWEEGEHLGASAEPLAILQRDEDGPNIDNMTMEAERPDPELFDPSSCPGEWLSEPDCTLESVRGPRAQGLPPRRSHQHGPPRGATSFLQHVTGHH
How it was run: as §1

[7] = target: FGFR3 (Homo sapiens, UniProt P22607)
How it was run: as §1

[8] = target: T5, YES (Homo sapiens, UniProt P07947)
T5 construct: gene YES1
How it was run: as §1

[9] = target: HIPK2 (Homo sapiens, UniProt Q9H2X6)
How it was run: as §1

[10] = target: FGR (Homo sapiens, UniProt P09769)
How it was run: as §1

[11] = target: T6, SGK (Homo sapiens, UniProt O00141)
T6 construct: gene SGK1
T6 sequence (O00141 whole entry): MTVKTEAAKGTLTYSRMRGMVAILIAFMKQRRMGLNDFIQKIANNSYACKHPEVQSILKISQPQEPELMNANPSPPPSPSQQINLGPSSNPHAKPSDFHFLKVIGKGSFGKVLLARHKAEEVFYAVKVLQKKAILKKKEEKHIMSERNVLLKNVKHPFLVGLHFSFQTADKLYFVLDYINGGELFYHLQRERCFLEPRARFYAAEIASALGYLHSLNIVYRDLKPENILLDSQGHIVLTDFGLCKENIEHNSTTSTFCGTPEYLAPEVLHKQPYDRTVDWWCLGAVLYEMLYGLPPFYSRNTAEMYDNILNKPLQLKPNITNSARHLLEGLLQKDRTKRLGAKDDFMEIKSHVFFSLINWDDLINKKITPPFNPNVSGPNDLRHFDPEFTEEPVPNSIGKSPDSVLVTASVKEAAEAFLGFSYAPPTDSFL
How it was run: as §1

[12] = target: TXK (Homo sapiens, UniProt P42681)
How it was run: as §1

[13] = target: T7, PYK2 (Homo sapiens, UniProt Q14289)
T7 construct: gene PTK2B
How it was run: as §1

[14] = target: FGFR4(V550E) (Homo sapiens, UniProt P22455, V550E)
Sequence of FGFR4(V550E) (P22455 whole entry V550E): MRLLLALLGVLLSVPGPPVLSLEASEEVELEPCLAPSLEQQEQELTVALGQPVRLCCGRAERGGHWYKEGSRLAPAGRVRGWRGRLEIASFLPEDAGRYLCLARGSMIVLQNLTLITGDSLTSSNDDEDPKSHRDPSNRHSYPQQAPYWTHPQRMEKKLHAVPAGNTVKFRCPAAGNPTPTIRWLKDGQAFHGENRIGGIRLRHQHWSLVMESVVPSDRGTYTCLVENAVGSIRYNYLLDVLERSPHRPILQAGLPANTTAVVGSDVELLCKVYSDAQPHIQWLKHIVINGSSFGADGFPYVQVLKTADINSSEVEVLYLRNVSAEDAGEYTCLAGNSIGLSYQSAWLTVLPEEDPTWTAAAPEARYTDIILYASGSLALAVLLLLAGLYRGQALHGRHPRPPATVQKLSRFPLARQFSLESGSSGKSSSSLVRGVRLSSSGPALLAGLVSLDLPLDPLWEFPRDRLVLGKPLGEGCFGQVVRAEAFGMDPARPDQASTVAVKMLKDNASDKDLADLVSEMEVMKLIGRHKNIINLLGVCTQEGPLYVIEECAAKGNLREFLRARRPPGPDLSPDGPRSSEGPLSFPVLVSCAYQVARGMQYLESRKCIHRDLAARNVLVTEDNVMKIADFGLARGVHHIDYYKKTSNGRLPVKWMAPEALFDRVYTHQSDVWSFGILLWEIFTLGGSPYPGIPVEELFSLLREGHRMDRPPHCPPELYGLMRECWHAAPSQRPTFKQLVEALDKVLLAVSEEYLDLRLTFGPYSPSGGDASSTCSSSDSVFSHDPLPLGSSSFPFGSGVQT
How it was run: as §1

[15] = target: MET(Y1235D) (Homo sapiens, UniProt P08581, Y1235D)
Sequence of MET(Y1235D) (P08581 whole entry Y1235D): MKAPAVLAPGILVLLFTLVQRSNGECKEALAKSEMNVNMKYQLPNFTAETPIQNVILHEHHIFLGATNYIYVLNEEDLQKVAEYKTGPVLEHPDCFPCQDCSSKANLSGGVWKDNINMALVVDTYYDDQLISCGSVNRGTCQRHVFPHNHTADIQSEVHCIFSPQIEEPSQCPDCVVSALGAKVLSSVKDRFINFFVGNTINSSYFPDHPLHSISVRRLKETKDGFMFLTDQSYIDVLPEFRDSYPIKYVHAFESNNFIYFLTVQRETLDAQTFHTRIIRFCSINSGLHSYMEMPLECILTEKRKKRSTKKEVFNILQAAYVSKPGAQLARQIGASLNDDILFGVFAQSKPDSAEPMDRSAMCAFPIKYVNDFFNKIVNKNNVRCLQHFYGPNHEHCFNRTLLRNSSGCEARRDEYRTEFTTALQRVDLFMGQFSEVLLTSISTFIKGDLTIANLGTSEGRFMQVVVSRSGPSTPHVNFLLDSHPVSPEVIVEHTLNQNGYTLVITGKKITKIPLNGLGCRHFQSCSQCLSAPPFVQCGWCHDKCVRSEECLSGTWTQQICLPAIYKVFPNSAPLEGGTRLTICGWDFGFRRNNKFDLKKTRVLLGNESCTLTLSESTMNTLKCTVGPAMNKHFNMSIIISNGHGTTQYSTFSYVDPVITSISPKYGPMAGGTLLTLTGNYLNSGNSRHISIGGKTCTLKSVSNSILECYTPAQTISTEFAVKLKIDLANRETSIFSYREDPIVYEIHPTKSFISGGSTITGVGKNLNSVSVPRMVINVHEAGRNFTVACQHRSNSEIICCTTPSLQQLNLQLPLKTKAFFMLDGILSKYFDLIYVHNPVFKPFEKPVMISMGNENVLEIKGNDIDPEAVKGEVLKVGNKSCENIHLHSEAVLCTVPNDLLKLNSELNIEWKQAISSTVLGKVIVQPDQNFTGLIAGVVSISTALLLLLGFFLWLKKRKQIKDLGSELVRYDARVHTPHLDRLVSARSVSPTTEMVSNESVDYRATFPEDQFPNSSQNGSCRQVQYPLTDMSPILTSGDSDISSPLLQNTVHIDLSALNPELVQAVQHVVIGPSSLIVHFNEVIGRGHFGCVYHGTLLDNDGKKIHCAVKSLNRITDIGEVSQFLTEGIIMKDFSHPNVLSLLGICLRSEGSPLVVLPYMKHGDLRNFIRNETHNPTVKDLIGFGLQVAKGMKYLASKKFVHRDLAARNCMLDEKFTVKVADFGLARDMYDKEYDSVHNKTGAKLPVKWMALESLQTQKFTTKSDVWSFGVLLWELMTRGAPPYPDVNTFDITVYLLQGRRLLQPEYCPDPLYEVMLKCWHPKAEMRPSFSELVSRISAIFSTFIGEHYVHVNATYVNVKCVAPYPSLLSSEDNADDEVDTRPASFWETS
How it was run: as §1

[16] = target: EPHB1 (Homo sapiens, UniProt P54762)
How it was run: as §1

[17] = target: T8, IKKε (Homo sapiens, UniProt Q14164)
T8 construct: gene IKBKE
How it was run: as §1

[18] = target: NuaK2 (Homo sapiens, UniProt Q9H093)
Sequence of NuaK2 (Q9H093 whole entry): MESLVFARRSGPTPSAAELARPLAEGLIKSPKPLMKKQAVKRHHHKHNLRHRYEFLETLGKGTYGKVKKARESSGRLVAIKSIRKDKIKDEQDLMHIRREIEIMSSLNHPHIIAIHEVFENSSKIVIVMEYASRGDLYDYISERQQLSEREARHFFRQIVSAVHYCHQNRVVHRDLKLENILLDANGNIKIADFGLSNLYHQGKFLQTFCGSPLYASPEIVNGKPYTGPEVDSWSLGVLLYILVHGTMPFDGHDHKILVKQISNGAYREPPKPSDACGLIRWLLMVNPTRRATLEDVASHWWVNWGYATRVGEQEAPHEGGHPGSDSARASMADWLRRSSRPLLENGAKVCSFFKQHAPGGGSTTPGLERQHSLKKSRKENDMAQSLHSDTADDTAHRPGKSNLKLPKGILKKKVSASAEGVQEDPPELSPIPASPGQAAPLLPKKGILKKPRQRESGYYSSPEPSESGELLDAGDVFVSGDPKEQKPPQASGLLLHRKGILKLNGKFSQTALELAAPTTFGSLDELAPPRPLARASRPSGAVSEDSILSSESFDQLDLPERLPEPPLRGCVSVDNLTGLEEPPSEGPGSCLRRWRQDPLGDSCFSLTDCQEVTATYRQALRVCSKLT
How it was run: as §1

[19] = target: TYRO3 (Homo sapiens, UniProt Q06418)
How it was run: as §1

[20] = target: T9, RSK2 (Homo sapiens, UniProt P51812)
T9 construct: gene RPS6KA3
How it was run: as §1

[21] = target: T10, CDC2/CycB1 (Homo sapiens, UniProt P06493)
T10 construct: gene CDK1
How it was run: as §1

[22] = target: T11, FYN(isoform a) (Homo sapiens, UniProt P06241)
T11 construct: isoform a
How it was run: as §1

[23] = target: T12, LYNa (Homo sapiens, UniProt P07948)
T12 construct: gene LYN; isoform a
How it was run: as §1

[24] = target: T13, CGK2 (Homo sapiens, UniProt Q13237)
T13 construct: gene PRKG2
How it was run: as §1

[25] = target: T14, PDGFRα (Homo sapiens, UniProt P16234)
T14 construct: gene PDGFRA
How it was run: as §1

[26] = target: FER (Homo sapiens, UniProt P16591)
How it was run: as §1

[27] = target: DDR1 (Homo sapiens, UniProt Q08345)
How it was run: as §1

[28] = target: T15, MNK2 (Homo sapiens, UniProt Q9HBH9)
T15 construct: gene MKNK2
How it was run: as §1

[29] = target: KIT (Homo sapiens, UniProt P10721)
Sequence of KIT (P10721 whole entry): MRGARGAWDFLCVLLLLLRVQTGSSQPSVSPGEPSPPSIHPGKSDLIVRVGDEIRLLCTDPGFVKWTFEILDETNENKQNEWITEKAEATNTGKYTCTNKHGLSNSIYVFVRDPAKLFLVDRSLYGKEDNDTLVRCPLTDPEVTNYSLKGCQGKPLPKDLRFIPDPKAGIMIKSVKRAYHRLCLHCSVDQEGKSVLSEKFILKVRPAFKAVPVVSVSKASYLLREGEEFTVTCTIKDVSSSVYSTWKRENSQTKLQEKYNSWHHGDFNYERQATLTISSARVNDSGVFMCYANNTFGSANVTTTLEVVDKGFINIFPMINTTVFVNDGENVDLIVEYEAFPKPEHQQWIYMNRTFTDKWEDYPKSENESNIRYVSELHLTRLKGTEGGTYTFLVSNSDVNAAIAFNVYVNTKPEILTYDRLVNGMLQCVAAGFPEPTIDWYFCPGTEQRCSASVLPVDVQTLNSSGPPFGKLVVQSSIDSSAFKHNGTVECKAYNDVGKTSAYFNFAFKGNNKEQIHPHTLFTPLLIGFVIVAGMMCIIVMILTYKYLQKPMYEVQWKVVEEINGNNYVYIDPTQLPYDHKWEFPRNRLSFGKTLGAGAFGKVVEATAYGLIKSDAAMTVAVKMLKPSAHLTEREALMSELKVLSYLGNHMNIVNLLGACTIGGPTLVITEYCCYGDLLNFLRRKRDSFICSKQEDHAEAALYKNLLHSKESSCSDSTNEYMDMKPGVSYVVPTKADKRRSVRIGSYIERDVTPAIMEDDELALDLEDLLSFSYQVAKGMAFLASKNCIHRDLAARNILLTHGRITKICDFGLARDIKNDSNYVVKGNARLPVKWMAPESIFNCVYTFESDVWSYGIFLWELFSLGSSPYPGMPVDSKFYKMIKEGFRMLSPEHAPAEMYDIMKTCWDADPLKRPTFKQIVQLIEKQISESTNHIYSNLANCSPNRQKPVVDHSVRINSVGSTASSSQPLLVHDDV
How it was run: as §1

[30] = target: MET(D1228H) (Homo sapiens, UniProt P08581, D1228H)
How it was run: as §1

[31] = target: T16, GSK3α (Homo sapiens, UniProt P49840)
T16 construct: gene GSK3A
How it was run: as §1

Compound: c1cc(-c2ccc3[nH]ncc3c2)ccn1 [TG693, 5-(4-pyridinyl)-1H-indazole]
- inhibition at 1 µM [1]: -6.2%
- inhibition at 1 µM [2]: 45.7%
- inhibition at 1 µM [3]: -1.3%
- inhibition at 1 µM [4]: 1.5%
- inhibition at 1 µM [5]: 21.8%
- inhibition at 1 µM [6]: 7.6%
- inhibition at 1 µM [7]: -0.6%
- inhibition at 1 µM [8]: -9.6%
- inhibition at 1 µM [9]: -2%
- inhibition at 1 µM [10]: -5.9%
- inhibition at 1 µM [11]: 5.6%
- inhibition at 1 µM [12]: -1%
- inhibition at 1 µM [13]: 3.3%
- inhibition at 1 µM [14]: -4.1%
- inhibition at 1 µM [15]: -2%
- inhibition at 1 µM [16]: 2.5%
- inhibition at 1 µM [17]: 6.1%
- inhibition at 1 µM [18]: 0.4%
- inhibition at 1 µM [19]: 0.3%
- inhibition at 1 µM [20]: 2.1%
- inhibition at 1 µM [21]: 10.3%
- inhibition at 1 µM [22]: -0.7%
- inhibition at 1 µM [23]: 0.1%
- inhibition at 1 µM [24]: 38.5%
- inhibition at 1 µM [25]: 6.2%
- inhibition at 1 µM [26]: 4.4%
- inhibition at 1 µM [27]: -6%
- inhibition at 1 µM [28]: 57.3%
- inhibition at 1 µM [29]: -0.9%
- inhibition at 1 µM [30]: 0.6%
- inhibition at 1 µM [31]: 12.6%
